In patent publication US4496545A, “Nonapeptide for treating addictive drug withdrawal conditions” (priority 1981, dated 1985):
Where no end group is shown, it is not given here.

Columns and labels:
[1] = system: morphine-dependent mouse; assay: Inhibition of the naloxone-triggered withdrawal leaps of the morphine-dependent mouse; type: in vivo; conditions: 30 mg/kg s.c. 30 minutes before naloxone; median leaps vs NaCl control
Text: An opiate-dependent organism for example reacts the same irrespective of species on the sudden withdrawal of the opiate (e.g. morphine) with withdrawal symptoms, i.e. addictive drug withdrawal conditions. In the course of this occurrence central and peripheral symptoms appear, of which the most striking in the mouse is a series of violent leaps (the so-called "jumping"). The number of leaps per time interval is proportional to the intensity of the withdrawal effect and their enumeration enables the incident to be evaluated quantitatively.
In order to produce the dependence a compressed tablet, which contained 75 mg of morphine (base) and which progressively dissolved with continuous liberation of the morphine, was implanted under the dorsal skin of male mice (weight about 22 g). On the third day after the implantation the morphine antagonist naloxone in a dosage of 0.1 mg/kg was administered subcutaneously to the animals in order to trigger off the withdrawal leaps.
After the injection, the leaps of each individual animal were counted for 20 minutes. The group median value was calculated from the total leaps of 8 animals, which formed a group. […] The dosage median values and, respectively, control median values were calculated from all individual values per dosage and, respectively, the positive and negative controls.

[2] = system: dogs; conditions: dog, in vivo
Protocol: (§1) Toxicological studies were carried out on 12 male and 12 female rats as well as on 3 male and 3 female dogs per dosage. For this purpose DSIP was dissolved in physiological sodium chloride solution and administered intravenously daily for 4 weeks in the dosages of 0.6, 1.8 and 6 mg/kg. At an interval of 2 weeks during these studies the hematological, hematochemical and the urine status were determined, and the electrocardiogram was recorded and analyzed.
(§2) At the termination of the aforementioned studies all animals were painlessly killed and there followed the autopsy besides the removal of organ samples for histological investigations.

[3] = system: dogs; assay: Toxicological study, daily intravenous administration for 4 weeks, dogs; conditions: maximum dosage (6 mg/kg i.v. daily for 4 weeks)
Protocol: as §1, §2

[4] = system: rats; assay: Toxicological study, daily intravenous administration for 4 weeks, rats; conditions: maximum dosage (6 mg/kg i.v. daily for 4 weeks)
Protocol: as §1, §2

[5] = system: rats; conditions: rat, in vivo
Protocol: as §1, §2

[6] = system: alcoholic or methadone- or heroin-dependent patients; conditions: human, in vivo
Protocol: Of the 25 alcoholic patients 8 were on admission already in delirium tremens to a medium to severe degrees. After the first subjective and objective withdrawal signs manifested themselves the patients received up to 4 intravenous infusions of in each case 0.0214 mg/kg of DSIP daily. For this purpose, the substance was dissolved in physiological sodium chloride solution and infused in the course of 5 minutes.
The duration of treatment amounted to a maximum of 3 days.

| Compound | % of negative control [1] | Tolerability of the dosages [2] | Electrocardiogram [3] | Electrocardiogram [4] | Tolerability of the dosages [5] | Tolerance of DSIP: poor [6] |
| --- | --- | --- | --- | --- | --- | --- |
| CN1CC[C@]23c4c5ccc(O)c4O[C@H]2[C@@H](O)C=C[C@H]3[C@H]1C5 [Morphine] | 27% |  |  |  |  |  |
| WAGGDASGE [DSIP, Trp-Ala-Gly-Gly-Asp-Ala-Ser-Gly-Glu] |  | tolerated without any side effects | no changes in the electrocardiogram | no changes in the electrocardiogram | tolerated without any side effects | 2 patients |
